Experimental data: US20250352543A1, “NANOCRYSTALLINE PREPARATION OF ROCK2 INHIBITOR AND PREPARATION METHOD THEREFOR” (BEIJING TIDE PHARMACEUTICAL CO., LTD., priority 2021, published 2025)

Assay: Solubility of the API
Format: physicochemical
Settings: water and a buffer salt solution with pH 1.0-pH 6.8

Solubility: insoluble
SMILES: Cn1c(C(=O)N2CC(F)(F)C2)cc2ccc(-c3nccc(Nc4ccc(-c5cn[nH]c5)cc4)n3)cc21 [compound of formula (IV), [6-[4-[[4-(1H-pyrazol-4-yl)phenyl]amino]pyrimidin-2-yl]-1-methyl-1H-indole-2-yl](3,3-difluoroazetidin-1-yl)methanone]
